From patent publication US9591867B2, “Compositions of abscisic acid for animal health” (Valent BioSciences Corporation, priority 2010, dated 2017)

Experiments:
[1] = tested on: rats; assay: Two generation reproduction toxicity study, S-ABA continuously in the diet; format: in vivo; settings: for Mean Live Offspring Born: per litter; for SPLEEN WEIGHT, % DIFFERENCE: MALES
Procedure: (§1) Tests were conducted with (S)-(+)-abscisic acid in accordance with standard guidelines and procedures as evidenced by EPA Subchronic Toxicity Test Guidelines: 870.3050—Repeated Dose 28-Day Oral Toxicity Study in Rodents (July 2000); 870.3100—90-Day Oral Toxicity in Rodents (August 1998); 870.3650—Combined Repeated Dose Toxicity Study with the Reproduction/Developmental Toxicity Screening Test (July 2000); and 870.3200—21/28-Day Dermal Toxicity (August 1998), as well as Organization for Economic Co-operation and Development (OECD) Guidelines for the Testing of Chemicals including: Test No. 407: Repeated Dose 28-day Oral Toxicity Study in Rodents; Test No. 408: Repeated Dose 90-Day Oral Toxicity Study in Rodents; Test No. 416: Two-Generation Reproduction Toxicity; and Test No. 410: Repeated Dose Dermal Toxicity: 21/28-day Study.
This study was conducted to determine the potential adverse effects of the test substance on reproduction in a 2-generation study. This included determining the effects of the test substance on male and female reproductive processes, including gonadal function, estrous cyclicity, mating behavior, conception, gestation, parturition, lactation, weaning, and on growth and development of the offspring. A minimum of 1 litter was produced in each generation.
Three groups of male and female were offered ABA, continuously in the diet for at least 70 consecutive days prior to mating. Target tests substance concentrations were 10,000, 15,000, and 20,000 ppm for the F0 and F1 generations. A concurrent control group of 30 rats/sex was offered the basal diet continuously throughout the study. F0 animals were approximately 7 weeks of age at the initiation of test diet administration. The test diet was administered to the offspring selected to become the F1 generation following weaning. The F0 and F1 males continued to receive the test substance throughout mating and continuing through the day prior to euthanasia. The F0 and F1 females continued to receive the test substance throughout mating, gestation, and lactation, and through the day of euthanasia. For both generations (F1 and F2), 8 pups per litter (4 per sex, when possible) were selected to reduce the variability among the litters. Offspring (30/sex/group, if possible) from the pairing of the F0 animals were selected to constitute the F1 generation. F0 males and females were exposed for 127-130 consecutive days and F1 males and females were exposed for 178-186 consecutive days.
All animals were observed twice daily for appearance and behavior. Clinical observations, body weights, and food consumption were recorded at appropriate intervals for males throughout the study and for females prior to mating and during gestation and lactation. All F0 and F1 females were allowed to deliver and rear their pups until weaning on lactation day 21. Clinical observations, body weights, and sexes for F1 and F2 pups were recorded at appropriate intervals. Nonselected F1 pups and all surviving F2 pups were necropsied. Selected organs were weighed from 1 pup/sex/litter from F1 and F2 pups that wee necropsied. Each surviving F0 and F1 parental animal received a complete detailed gross necropsy following the completion of weaning of the F1 and F2 pups, respectively; selected organs were weighed. Spermatogenic endpoints were recorded for all F0 and F1 males, and ovarian primordial follicle counts were recorded for all F0 and F1 females in the control and high-exposure groups and all F0 and F1 females suspected of reduced fertility. Designated tissues from all F0 and F1 parental animals were examined microscopically.

[2] = Fetal data at scheduled necropsy (mg/kg/day dose groups); format: in vivo
Procedure: as §1

[3] = 10,000 ppm in diet, rat offspring
[4] = 20,000 ppm in diet, rat offspring

With `CC1=CC(=O)CC(C)(C)[C@@]1(O)/C=C/C(C)=C\C(=O)O` [S-ABA, (S)-(+)-abscisic acid] the “Offspring FOUND DEAD” value ([1]; 10,000 ppm in diet) was 4, the “OFFSPRING WEIGHT, MEAN” value ([1]; 10,000 ppm in diet, FEMALE, postnatal day 1) was 6.6 grams and the “OFFSPRING WEIGHT, MEAN” value ([1]; 10,000 ppm in diet, FEMALE, postnatal day 4) was 9.1 grams. For the same molecule, the “OFFSPRING WEIGHT, MEAN” value ([1]; 10,000 ppm in diet, MALE, postnatal day 1) was 7.1 grams, the “OFFSPRING WEIGHT, MEAN” value ([1]; 10,000 ppm in diet, MALE, postnatal day 4) was 9.7 grams and the “Mean Live Offspring Born” value ([1]; 10,000 ppm in diet) was 12.3. The “POSTNATAL SURVIVAL, POSTNATAL DAY 0-1, MEAN” value [1, 3] was 100.0 % PER LITTER, the “POSTNATAL SURVIVAL, POSTNATAL DAY 7-14, MEAN” value [1, 3] was 100.0 % PER LITTER and the “POSTNATAL SURVIVAL, POSTNATAL DAY 14-21, MEAN” value [1, 3] was 100.0 % PER LITTER. For the same molecule, the “Offspring FOUND DEAD” value ([1]; 15,000 ppm in diet) was 15, the “OFFSPRING WEIGHT, MEAN” value ([1]; 15,000 ppm in diet, FEMALE, postnatal day 1) was 6.6 grams and the “OFFSPRING WEIGHT, MEAN” value ([1]; 15,000 ppm in diet, FEMALE, postnatal day 4) was 8.8 grams. The “OFFSPRING WEIGHT, MEAN” value ([1]; 15,000 ppm in diet, FEMALE, postnatal day 7) was 14.0 grams, the “OFFSPRING WEIGHT, MEAN” value ([1]; 15,000 ppm in diet, MALE, postnatal day 1) was 6.9 grams and the “OFFSPRING WEIGHT, MEAN” value ([1]; 15,000 ppm in diet, MALE, postnatal day 4) was 9.3 grams. The “Mean Live Offspring Born” value ([1]; 15,000 ppm in diet) was 13.1, the “POSTNATAL SURVIVAL, POSTNATAL DAY 14-21, MEAN” value ([1]; 15,000 ppm in diet, rat offspring) was 100.0 % PER LITTER and the “Offspring FOUND DEAD” value ([1]; 20,000 ppm in diet) was 11. For the same molecule, the “OFFSPRING WEIGHT, MEAN” value ([1]; 20,000 ppm in diet, FEMALE, postnatal day 1) was 6.6 grams, the “OFFSPRING WEIGHT, MEAN” value ([1]; 20,000 ppm in diet, FEMALE, postnatal day 4) was 8.8 grams and the “OFFSPRING WEIGHT, MEAN” value ([1]; 20,000 ppm in diet, MALE, postnatal day 1) was 7.0 grams. For the same molecule, the “OFFSPRING WEIGHT, MEAN” value ([1]; 20,000 ppm in diet, MALE, postnatal day 4) was 9.3 grams, the “Mean Live Offspring Born” value ([1]; 20,000 ppm in diet) was 12.3 and the “POSTNATAL SURVIVAL, POSTNATAL DAY 4 (POST-SELECT)-21, MEAN” value [1, 4] was 98.0 % PER LITTER. The “POSTNATAL SURVIVAL, POSTNATAL DAY 14-21, MEAN” value [1, 4] was 100.0 % PER LITTER, the “SPLEEN WEIGHT, % DIFFERENCE” value ([1]; 10,000 PPM vs 0 PPM) was −2.0% and the “SPLEEN WEIGHT, % DIFFERENCE” value ([1]; 15,000 PPM vs 0 PPM) was −3.0%. The “SPLEEN WEIGHT, % DIFFERENCE” value ([1]; 20,000 PPM vs 0 PPM) was −8.9%, the “offspring mortality (in words)” value ([1]; conclusion from Table 3) was “decreases” and the “number of live offspring per litter (in words)” value ([1]; conclusion from Table 4) was “increases”. For the same molecule, the “follicle size (in words)” value ([1]; conclusion from Table 6) was “increase”, the “postnatal offspring survival rates (in words)” value ([1]; rats, conclusion from Table 1) was “increases” and the “offspring weight gain (in words)” value ([1]; rats, conclusion from Table 2) was “increases”. The “spleen weight (in words)” value ([1]; rats, males and second generation pups) was “spleen weight reduction”, the “fetus numbers at necropsy (in words)” value ([2]; conclusion from Table 5) was “increase” and the “FETAL DATA AT SCHEDULED NECROPSY, SEX FEMALE, MEAN” value ([2]; group 2, 500 MG/KG/DAY) was 7.2. The “FETAL DATA AT SCHEDULED NECROPSY, SEX FEMALE, N (number of fetuses)” value ([2]; group 2, 500 MG/KG/DAY) was 181, the “FETAL DATA AT SCHEDULED NECROPSY, SEX MALE, MEAN” value ([2]; group 2, 500 MG/KG/DAY) was 7.5 and the “FETAL DATA AT SCHEDULED NECROPSY, SEX MALE, N (number of fetuses)” value ([2]; group 2, 500 MG/KG/DAY) was 187. The “FETAL DATA AT SCHEDULED NECROPSY, VIABLE FETUSES, MEAN” value ([2]; group 2, 500 MG/KG/DAY) was 14.7, the “FETAL DATA AT SCHEDULED NECROPSY, SEX FEMALE, MEAN” value ([2]; group 3, 750 MG/KG/DAY) was 6.6 and the “FETAL DATA AT SCHEDULED NECROPSY, SEX FEMALE, N (number of fetuses)” value ([2]; group 3, 750 MG/KG/DAY) was 166. The “FETAL DATA AT SCHEDULED NECROPSY, SEX MALE, MEAN” value ([2]; group 3, 750 MG/KG/DAY) was 7.5, the “FETAL DATA AT SCHEDULED NECROPSY, SEX MALE, N (number of fetuses)” value ([2]; group 3, 750 MG/KG/DAY) was 188 and the “FETAL DATA AT SCHEDULED NECROPSY, VIABLE FETUSES, MEAN” value ([2]; group 3, 750 MG/KG/DAY) was 14.2. The “FETAL DATA AT SCHEDULED NECROPSY, SEX FEMALE, MEAN” value ([2]; group 4, 1,000 MG/KG/DAY) was 8.3, the “FETAL DATA AT SCHEDULED NECROPSY, SEX FEMALE, N (number of fetuses)” value ([2]; group 4, 1,000 MG/KG/DAY) was 208 and the “FETAL DATA AT SCHEDULED NECROPSY, SEX MALE, MEAN” value ([2]; group 4, 1,000 MG/KG/DAY) was 6.8. For the same molecule, the “FETAL DATA AT SCHEDULED NECROPSY, SEX MALE, N (number of fetuses)” value ([2]; group 4, 1,000 MG/KG/DAY) was 170 and the “FETAL DATA AT SCHEDULED NECROPSY, VIABLE FETUSES, MEAN” value ([2]; group 4, 1,000 MG/KG/DAY) was 15.1.
